Test system: spruce somatic embryos
Experiment: ex vitro re-germination of desiccated, pre-germinated spruce somatic embryos after ABA treatment
Assay type: in vivo
Conditions: 90 min in darkness
Source text: Somatic embryos of interior spruce (Picea glauca (Moench) Voss x P. engelmannii Parry ex Engelm.) lines I-1026, and 10-1418 were produced and dried with a high-relative-humidity treatment (HRHT) according to the methods of Roberts et al. (1990a; 1990b) and Webster et al. (1990).
Two groups of dried embryos for each of the two genotypes, were germinated on Whatman #1 filter paper on a thin layer of cotton in polycarbonate boxes. The liquid germination medium was modified GMD medium (NH4^+—N/NO3^−—N ratio was 1.4; phosphate concentration was 6 mM; 3% sucrose). After the embryos were sown onto the filter paper, the liquid level in the germination boxes was adjusted to provide a liquid film surrounding the surface of embryos situated at the interface with the solid support. The boxes were sealed with Parafilm and placed in a controlled environment room with the temperature maintained at a constant 23° C.
The first group of somatic embryos was germinated for 7 days after which, the polycarbonate boxes containing the germinants were transferred into refrigerated storage (i.e., temperatures were within a range of 8-12° C.) for 72 hours. The germinants were then removed from the cold treatment and subsequently received the various ABA treatments described below. The germinants which received the cold treatment are hereafter referred to as “stored germinants” .
This group of germinants is referred to hereafter as “fresh germinants”.
The stored and fresh germinants of each genotype were carefully paired into four groups, on wetted paper towel disks in separate 10 cm Petri dishes and received four ABA treatments, said ABA treatments being concentrations of 0, 5, 10, 20 μM, respectively. The ABA treatments were applied in darkness for 90 min.
After the completion of the ABA treatments, the somatic germinants were blot-dried on paper towels. The germinants were then transferred to fresh 5 cm Petri dish. The dishes, two per drying chamber, were placed in drying chambers containing a saturated KCl solution, which provided an atmospheric humidity of 85% RH over the liquid surface in a sealed chamber at 20° C. The somatic germinants were dried for 24 hr in a refrigerated room maintained between 5-8° C. after which, the drying chambers were transferred into a controlled environment room maintained at 20° C. for another 15 h.
The dried germinants were sown into 288-cavity miniplug trays (TLC Polyform Inc,. Plymouth Minn., USA, 55441) filled with a peat-based soilless mix comprised of 60% peat and 40% coarse horticultural vermiculite. Each germinant type of each genotype in each ABA treatment was randomly sown into 5 minitrays in blocks of 20 germinants. After sowing, the germinants were covered with a thin layer of coir (1993 Crystal Co., St. Louis, Mo., USA). The trays were wrapped in black plastic bags for 18 hrs to allow slow rehydration of germinants. Then, the trays were misted with a modified GMD nutrient solution (Webster et al., 1990) containing 3% sucrose until the soilless mix and coir became well wetted. The trays were placed in two misting chambers in a controlled environment germination room under light reduced by a 50% shade cloth for the first week. The shade cloth was removed at the end of the first week and the germinants were exposed to a light intensity of 180 μmol m^−2s^−1 photosynthetic photon flux. The chambers were frequently misted to keep the soilless mix moistened. Modified GMD solution with 3% sucrose was sprayed onto the germinants daily. After 7 days, germinants were fertilized weekly with 20-20-20 fertilizer (Plant Products Ltd., Brampton, ON, Canada) to deliver the equivalent of 100 ppm N.

## CC1=CC(=O)CC(C)(C)[C@@]1(O)/C=C/C(C)=C\C(=O)O [ABA, abscisic acid]
Genotype 10-1418, "fresh" germinants, ABA 5 μM
  Re-germination success (%): 53.8%
Genotype 10-1418, "fresh" germinants, ABA 10 μM
  Re-germination success (%): 16.6%
Genotype 10-1418, "fresh" germinants, ABA 20 μM
  Re-germination success (%): 29.8%
Genotype 10-1418, "stored" germinants, ABA 5 μM
  Re-germination success (%): 59.8%
Genotype 10-1418, "stored" germinants, ABA 10 μM
  Re-germination success (%): 57.5%
Genotype 10-1418, "stored" germinants, ABA 20 μM
  Re-germination success (%): 60.0%
Genotype I-1026, "fresh" germinants, ABA 5 μM
  Re-germination success (%): 35.0%
Genotype I-1026, "fresh" germinants, ABA 10 μM
  Re-germination success (%): 53.3%
Genotype I-1026, "fresh" germinants, ABA 20 μM
  Re-germination success (%): 48.2%
Genotype I-1026, "stored" germinants, ABA 5 μM
  Re-germination success (%): 71.8%
Genotype I-1026, "stored" germinants, ABA 10 μM
  Re-germination success (%): 74.3%
Genotype I-1026, "stored" germinants, ABA 20 μM
  Re-germination success (%): 73.5%

Reference: patent publication US6444467B1, “Process for production and subsequent ex vitro sowing and propagation of pre-germinated plant somatic embryos” (Cellfor Inc., priority 1998, dated 2002)
